# From patent US20250353891A1 (MEDIMMUNE LIMITED, priority 2022, published 2025)
# Starred links: 1 amine or outer side, 2 acyl side, 3 side chain; linkers in the order of their positions; H or OH if unused. Non-standard residues stand in square brackets, D forms with d. Residues, ends and D or L forms follow the SMILES beside them. Groups on a side chain read outwards from the residue. *: point of attachment. C20 diacid = O=C(O)CCCCCCCCCCCCCCCCCCC(=O)*; C18 diacid = O=C(O)CCCCCCCCCCCCCCCCC(=O)*; γGlu = O=C(O)[C@H](CCC(=O)[*:2])N[*:1]; αMeF = C[C@](N)(Cc1ccccc1)C(=O)O; AEEA = NCCOCCOCC(=O)O; Aib = CC(C)(N)C(=O)O
# Columns and labels:
# [1] = biological target: human GLP-1 receptor (hGLP-1R) (Homo sapiens, UniProt P43220); experiment: cAMP production (HTRF) in CHO cells expressing hGLP-1R; type: cell-based; set-up: expressed in transfected cells; details: for EC50: Table 7, peptides modified at position 20, cAMP in CHO hGLP-1R cells, geometric mean, read-out: hGLP-1R EC50; for % Relative Potency Ratio: Table 7, % GLP-1R activity relative to GLP-1 / % GlucR activity relative to glucagon
# Chain of human GLP-1 receptor (hGLP-1R) (P43220 24-463): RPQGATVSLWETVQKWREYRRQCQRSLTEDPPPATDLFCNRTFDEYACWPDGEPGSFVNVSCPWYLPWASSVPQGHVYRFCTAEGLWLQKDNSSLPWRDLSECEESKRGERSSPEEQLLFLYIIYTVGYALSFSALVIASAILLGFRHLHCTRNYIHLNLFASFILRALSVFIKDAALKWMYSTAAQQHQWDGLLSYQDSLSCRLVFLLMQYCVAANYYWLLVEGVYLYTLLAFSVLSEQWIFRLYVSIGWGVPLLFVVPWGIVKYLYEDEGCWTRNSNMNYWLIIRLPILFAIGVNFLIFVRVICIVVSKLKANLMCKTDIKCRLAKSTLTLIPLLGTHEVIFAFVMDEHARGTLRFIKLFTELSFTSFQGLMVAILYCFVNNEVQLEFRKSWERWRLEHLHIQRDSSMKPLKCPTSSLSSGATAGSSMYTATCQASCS
# Summary of the method: (§1)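 Cells were resuspended in assay buffer at batch-optimized density, typically 1×10^5 cells/mL for hGLP-1R and 2×10^5 cells/mL for hGCGR. After 30 min incubation at room temperature with compound, cAMP was measured by two-step HTRF. EC50 values came from 4-parameter logistic fits of % Delta F.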
# [2] = biological target: human glucagon receptor (hGCGR) (Homo sapiens, UniProt P47871); experiment: cAMP production (HTRF) in CHO cells expressing hGCGR; type: cell-based; set-up: expressed in transfected cells; details: Table 7, peptides modified at position 20; cAMP in CHO hGCGR cells; geometric mean; read-out: hGluc-R EC50
# Chain of human glucagon receptor (hGCGR) (P47871 26-477): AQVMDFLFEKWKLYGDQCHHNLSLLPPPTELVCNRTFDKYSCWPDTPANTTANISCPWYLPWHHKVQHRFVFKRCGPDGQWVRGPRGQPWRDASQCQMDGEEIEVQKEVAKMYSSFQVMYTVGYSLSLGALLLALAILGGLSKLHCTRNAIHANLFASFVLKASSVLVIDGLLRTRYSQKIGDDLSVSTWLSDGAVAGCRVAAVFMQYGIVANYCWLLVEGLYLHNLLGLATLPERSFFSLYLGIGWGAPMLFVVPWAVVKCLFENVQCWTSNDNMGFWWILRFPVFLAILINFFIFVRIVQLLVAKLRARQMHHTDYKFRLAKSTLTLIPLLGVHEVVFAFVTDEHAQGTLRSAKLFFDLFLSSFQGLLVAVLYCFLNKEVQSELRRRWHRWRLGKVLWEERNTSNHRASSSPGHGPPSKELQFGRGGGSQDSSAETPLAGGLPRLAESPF
# Summary of the method: as §1
smiles,measurement,setting,value
CC[C@H](C)[C@H](NC(=O)C(C)(C)NC(=O)[C@H](CCC(N)=O)NC(=O)[C@@H](NC(=O)[C@](C)(Cc1ccccc1)NC(=O)[C@H](CC(=O)O)NC(=O)[C@H](CCCCNC(=O)COCCOCCNC(=O)CC[C@H](NC(=O)CC[C@H](NC(=O)CCCCCCCCCCCCCCCCCCC(=O)O)C(=O)O)C(=O)O)NC(=O)[C@H](C)NC(=O)[C@H](C)NC(=O)[C@H](CCCNC(=N)N)NC(=O)[C@H](CO)NC(=O)[C@H](CC(=O)O)NC(=O)[C@H](CC(C)C)NC(=O)[C@](C)(Cc1ccccc1)NC(=O)[C@H](CCCCN)NC(=O)[C@H](CO)NC(=O)[C@@H](NC(=O)[C@H](CC(=O)O)NC(=O)[C@H](CO)NC(=O)[C@@H](NC(=O)[C@](C)(Cc1ccccc1)NC(=O)[C@H](CO)NC(=O)CNC(=O)[C@H](Cc1c[nH]cn1)NC(=O)C(C)(C)NC(=O)[C@@H](N)Cc1c[nH]cn1)[C@@H](C)O)C(C)C)C(C)C)C(=O)N[C@@H](C)C(=O)N[C@@H](CC(N)=O)C(=O)N[C@H](C(N)=O)[C@@H](C)O [Peptide 279] (H-H[Aib]HGS[αMeF]TSDVSK[αMeF]LDSRAAK([AEEA-γGlu-γGlu-C20 diacid])D[αMeF]VQ[Aib]IANT-NH2),EC50,[1],0.0865 nM
same,% Relative Potency Ratio,[1],3.4
same,EC50,[2],0.15 nM
CC[C@H](C)[C@H](NC(=O)C(C)(C)NC(=O)[C@H](CCC(N)=O)NC(=O)[C@@H](NC(=O)[C@](C)(Cc1ccccc1)NC(=O)[C@H](CC(=O)O)NC(=O)[C@H](CCCCNC(=O)COCCOCCNC(=O)COCCOCCNC(=O)CC[C@H](NC(=O)CCCCCCCCCCCCCCCCCCC(=O)O)C(=O)O)NC(=O)[C@H](C)NC(=O)[C@H](C)NC(=O)[C@H](CCCNC(=N)N)NC(=O)[C@H](CO)NC(=O)[C@H](CC(=O)O)NC(=O)[C@H](CC(C)C)NC(=O)[C@](C)(Cc1ccccc1)NC(=O)[C@H](CCCCN)NC(=O)[C@H](CO)NC(=O)[C@@H](NC(=O)[C@H](CC(=O)O)NC(=O)[C@H](CO)NC(=O)[C@@H](NC(=O)[C@](C)(Cc1ccccc1)NC(=O)[C@H](CO)NC(=O)CNC(=O)[C@H](Cc1c[nH]cn1)NC(=O)C(C)(C)NC(=O)[C@@H](N)Cc1c[nH]cn1)[C@@H](C)O)C(C)C)C(C)C)C(=O)N[C@@H](C)C(=O)N[C@@H](CC(N)=O)C(=O)N[C@H](C(N)=O)[C@@H](C)O [Peptide 280] (H-H[Aib]HGS[αMeF]TSDVSK[αMeF]LDSRAAK([AEEA-AEEA-γGlu-C20 diacid])D[αMeF]VQ[Aib]IANT-NH2),EC50,[1],0.0783 nM
same,% Relative Potency Ratio,[1],3.9
same,EC50,[2],0.155 nM
CC[C@H](C)[C@H](NC(=O)C(C)(C)NC(=O)[C@H](CCC(N)=O)NC(=O)[C@@H](NC(=O)[C@](C)(Cc1ccccc1)NC(=O)[C@H](CC(=O)O)NC(=O)[C@H](CCCCNC(=O)COCCOCCNC(=O)COCCOCCNC(=O)CC[C@H](NC(=O)CC[C@H](NC(=O)CCCCCCCCCCCCCCCCCCC(=O)O)C(=O)O)C(=O)O)NC(=O)[C@H](C)NC(=O)[C@H](C)NC(=O)[C@H](CCCNC(=N)N)NC(=O)[C@H](CO)NC(=O)[C@H](CC(=O)O)NC(=O)[C@H](CC(C)C)NC(=O)[C@](C)(Cc1ccccc1)NC(=O)[C@H](CCCCN)NC(=O)[C@H](CO)NC(=O)[C@@H](NC(=O)[C@H](CC(=O)O)NC(=O)[C@H](CO)NC(=O)[C@@H](NC(=O)[C@](C)(Cc1ccccc1)NC(=O)[C@H](CO)NC(=O)CNC(=O)[C@H](Cc1c[nH]cn1)NC(=O)[C@H](CO)NC(=O)[C@@H](N)Cc1c[nH]cn1)[C@@H](C)O)C(C)C)C(C)C)C(=O)N[C@@H](C)C(=O)N[C@@H](CC(N)=O)C(=O)N[C@H](C(N)=O)[C@@H](C)O [Peptide 281] (H-HSHGS[αMeF]TSDVSK[αMeF]LDSRAAK([AEEA-AEEA-γGlu-γGlu-C20 diacid])D[αMeF]VQ[Aib]IANT-NH2),EC50,[1],0.155 nM
same,% Relative Potency Ratio,[1],13.3
same,EC50,[2],1.04 nM
CC[C@H](C)[C@H](NC(=O)C(C)(C)NC(=O)[C@H](CCC(N)=O)NC(=O)[C@@H](NC(=O)[C@](C)(Cc1ccccc1)NC(=O)[C@H](CC(=O)O)NC(=O)[C@H](CCCCNC(=O)COCCOCCNC(=O)COCCOCCNC(=O)CC[C@H](NC(=O)CCCCCCCCCCCCCCCCC(=O)O)C(=O)O)NC(=O)[C@H](C)NC(=O)[C@H](C)NC(=O)[C@H](CCCNC(=N)N)NC(=O)[C@H](CO)NC(=O)[C@H](CC(=O)O)NC(=O)[C@H](CC(C)C)NC(=O)[C@](C)(Cc1ccccc1)NC(=O)[C@H](CCCCN)NC(=O)[C@H](CO)NC(=O)[C@@H](NC(=O)[C@H](CC(=O)O)NC(=O)[C@H](CO)NC(=O)[C@@H](NC(=O)[C@](C)(Cc1ccccc1)NC(=O)[C@H](CO)NC(=O)CNC(=O)[C@H](Cc1c[nH]cn1)NC(=O)[C@H](CO)NC(=O)[C@@H](N)Cc1c[nH]cn1)[C@@H](C)O)C(C)C)C(C)C)C(=O)N[C@@H](C)C(=O)N[C@@H](CC(N)=O)C(=O)N[C@H](C(N)=O)[C@@H](C)O [Peptide 284] (H-HSHGS[αMeF]TSDVSK[αMeF]LDSRAAK([AEEA-AEEA-γGlu-C18 diacid])D[αMeF]VQ[Aib]IANT-NH2),EC50,[1],0.0434 nM
same,% Relative Potency Ratio,[1],5.4
same,EC50,[2],0.119 nM
CC[C@H](C)[C@H](NC(=O)C(C)(C)NC(=O)[C@H](CCC(N)=O)NC(=O)[C@@H](NC(=O)[C@](C)(Cc1ccccc1)NC(=O)[C@H](CC(=O)O)NC(=O)[C@H](CCCCNC(=O)COCCOCCNC(=O)COCCOCCNC(=O)CC[C@H](NC(=O)CCCCCCCCCCCCCCCCC(=O)O)C(=O)O)NC(=O)[C@H](C)NC(=O)[C@H](C)NC(=O)[C@H](CCCNC(=N)N)NC(=O)[C@H](CO)NC(=O)[C@H](CC(=O)O)NC(=O)[C@H](CC(C)C)NC(=O)[C@](C)(Cc1ccccc1)NC(=O)[C@H](CCCCN)NC(=O)[C@H](CO)NC(=O)[C@@H](NC(=O)[C@H](CC(=O)O)NC(=O)[C@H](CO)NC(=O)[C@@H](NC(=O)[C@H](Cc1ccccc1)NC(=O)[C@H](CO)NC(=O)CNC(=O)[C@H](Cc1c[nH]cn1)NC(=O)C(C)(C)NC(=O)[C@@H](N)Cc1c[nH]cn1)[C@@H](C)O)C(C)C)C(C)C)C(=O)N[C@@H](C)C(=O)N[C@@H](CC(N)=O)C(=O)N[C@H](C(N)=O)[C@@H](C)O [Peptide 285] (H-H[Aib]HGSFTSDVSK[αMeF]LDSRAAK([AEEA-AEEA-γGlu-C18 diacid])D[αMeF]VQ[Aib]IANT-NH2),EC50,[1],0.301 nM
same,% Relative Potency Ratio,[1],0.6
same,EC50,[2],0.087 nM
CC[C@H](C)[C@H](NC(=O)C(C)(C)NC(=O)[C@H](CCC(N)=O)NC(=O)[C@@H](NC(=O)[C@](C)(Cc1ccccc1)NC(=O)[C@H](CC(=O)O)NC(=O)[C@H](CCCCNC(=O)COCCOCCNC(=O)COCCOCCNC(=O)CC[C@H](NC(=O)CCCCCCCCCCCCCCCCC(=O)O)C(=O)O)NC(=O)[C@H](C)NC(=O)[C@H](C)NC(=O)[C@H](CCCNC(=N)N)NC(=O)[C@H](CO)NC(=O)[C@H](CC(=O)O)NC(=O)[C@H](CC(C)C)NC(=O)[C@H](Cc1ccc(O)cc1)NC(=O)[C@H](CCCCN)NC(=O)[C@H](CO)NC(=O)[C@@H](NC(=O)[C@H](CC(=O)O)NC(=O)[C@H](CO)NC(=O)[C@@H](NC(=O)[C@](C)(Cc1ccccc1)NC(=O)[C@H](CO)NC(=O)CNC(=O)[C@H](Cc1c[nH]cn1)NC(=O)C(C)(C)NC(=O)[C@@H](N)Cc1c[nH]cn1)[C@@H](C)O)C(C)C)C(C)C)C(=O)N[C@@H](C)C(=O)N[C@@H](CC(N)=O)C(=O)N[C@H](C(N)=O)[C@@H](C)O [Peptide 286] (H-H[Aib]HGS[αMeF]TSDVSKYLDSRAAK([AEEA-AEEA-γGlu-C18 diacid])D[αMeF]VQ[Aib]IANT-NH2; N-terminus assumed),EC50,[1],0.0316 nM
same,% Relative Potency Ratio,[1],3.3
same,EC50,[2],0.053 nM
CC[C@H](C)[C@H](NC(=O)[C@H](Cc1c[nH]c2ccccc12)NC(=O)[C@H](CCC(N)=O)NC(=O)[C@@H](NC(=O)[C@](C)(Cc1ccccc1)NC(=O)[C@H](CC(=O)O)NC(=O)[C@H](CCCCNC(=O)COCCOCCNC(=O)COCCOCCNC(=O)CC[C@H](NC(=O)CCCCCCCCCCCCCCCCC(=O)O)C(=O)O)NC(=O)[C@H](C)NC(=O)[C@H](C)NC(=O)[C@H](CCCNC(=N)N)NC(=O)[C@H](CO)NC(=O)[C@H](CC(=O)O)NC(=O)[C@H](CC(C)C)NC(=O)[C@](C)(Cc1ccccc1)NC(=O)[C@H](CCCCN)NC(=O)[C@H](CO)NC(=O)[C@@H](NC(=O)[C@H](CC(=O)O)NC(=O)[C@H](CO)NC(=O)[C@@H](NC(=O)[C@](C)(Cc1ccccc1)NC(=O)[C@H](CO)NC(=O)CNC(=O)[C@H](Cc1c[nH]cn1)NC(=O)C(C)(C)NC(=O)[C@@H](N)Cc1c[nH]cn1)[C@@H](C)O)C(C)C)C(C)C)C(=O)N[C@@H](C)C(=O)N[C@@H](CC(N)=O)C(=O)N[C@H](C(N)=O)[C@@H](C)O [Peptide 288] (H-H[Aib]HGS[αMeF]TSDVSK[αMeF]LDSRAAK([AEEA-AEEA-γGlu-C18 diacid])D[αMeF]VQWIANT-NH2),EC50,[1],0.0427 nM
same,% Relative Potency Ratio,[1],1.2
same,EC50,[2],0.0269 nM
CC[C@H](C)[C@H](NC(=O)[C@H](Cc1c[nH]c2ccccc12)NC(=O)[C@H](CCC(N)=O)NC(=O)[C@@H](NC(=O)[C@](C)(Cc1ccccc1)NC(=O)[C@H](CC(=O)O)NC(=O)[C@H](CCCCNC(=O)COCCOCCNC(=O)COCCOCCNC(=O)CC[C@H](NC(=O)CC[C@H](NC(=O)CCCCCCCCCCCCCCCCCCC(=O)O)C(=O)O)C(=O)O)NC(=O)[C@H](C)NC(=O)[C@H](C)NC(=O)[C@H](CCCNC(=N)N)NC(=O)[C@H](CO)NC(=O)[C@H](CC(=O)O)NC(=O)[C@H](CC(C)C)NC(=O)[C@H](Cc1ccc(O)cc1)NC(=O)[C@H](CCCCN)NC(=O)[C@H](CO)NC(=O)[C@@H](NC(=O)[C@H](CC(=O)O)NC(=O)[C@H](CO)NC(=O)[C@@H](NC(=O)[C@H](Cc1ccccc1)NC(=O)[C@H](CO)NC(=O)CNC(=O)[C@H](Cc1c[nH]cn1)NC(=O)C(C)(C)NC(=O)[C@@H](N)Cc1c[nH]cn1)[C@@H](C)O)C(C)C)C(C)C)C(=O)N[C@@H](C)C(=O)N[C@@H](CC(N)=O)C(=O)N[C@H](C(N)=O)[C@@H](C)O [Peptide 291] (H-H[Aib]HGSFTSDVSKYLDSRAAK([AEEA-AEEA-γGlu-γGlu-C20 diacid])D[αMeF]VQWIANT-NH2),EC50,[1],1.51 nM
same,% Relative Potency Ratio,[1],1.1
same,EC50,[2],0.847 nM
